The subject of the first assay is Escherichia coli strain ATCC25922. The experiment in a line: standard microdilution assay to determine minimum inhibitory concentrations (MICs). Format: cell-based. Conditions: Escherichia coli strain ATCC25922, microdilution. Here is the method: The in vitro activity of the compounds of the present invention can be determined. Antimicrobial testing is typically performed to determine the minimum inhibitory concentration (MIC). Minimum inhibitory concentrations (MICs) are determined by the microdilution method in a final volume of 100 μl according to protocols outlined by The Clinical and Laboratory Standards Institute (CLSI). Performance standards for reference strains are assessed within the same experimental design to maintain quality control. See, for example, Clinical Laboratory Standards Institute: Methods for dilution antimicrobial susceptibility tests for bacteria that grow aerobically M7-A8. Approved Standard-Eighth Edition. Wayne, Pa.: CLSI; December 2008; and Clinical Laboratory Standards Institute: Performance Standards for Antimicrobial Susceptibility Testing M100-S20; Approved Standard-Twentieth Edition. Wayne, Pa.: CLSI; June 2010.
The compounds of the present invention were tested for antimicrobial activity. […] The compounds were run against Escherichia coli strain ATCC25922 using a standard microdilution assay to determine minimum inhibitory concentrations (MICs). […] A “N/A” means that data is unavailable. It will be recognized by one skilled in the art that the compounds can be assessed against other bacterial organisms and that the presentation of data for activity against Escherichia coli is illustrative and in no way is intended to limit the scope of the present invention. The compounds of the present invention can be assayed against a range of other microorganisms depending upon the performance activity desired to be gathered. Furthermore, the “+”, “−”, and “N/A” representation and the selection of a cutoff value of 16 micrograms/ml is also illustrative and in no way is intended to limit the scope of the present invention.
A general note: Dilution methods test growth across graded concentrations, often in twofold steps.
With `C[S+]([O-])Cc1cc(CCCCN)cc(-c2cc3cn(-c4ccc(CNCCCNC(=N)N)cc4)c(=O)nc3[nH]2)c1` (stereo not shown) [Compound 2], the “E. coli ATCC25922 MIC” value was “+ (a “+” indicates that the compound has an MIC value of 16 micrograms/ml or less)”. As for `COCc1cc(CCCCN)cc(-c2cc3cn(-c4ccc(CNCCCNC(=N)N)cc4)c(=O)nc3[nH]2)c1` [Compound 3], the “E. coli ATCC25922 MIC” value is “+ (a “+” indicates that the compound has an MIC value of 16 micrograms/ml or less)”. Consider `N=C(N)NCCCNCc1ccc(-n2cc3cc(-c4cc(CCCCN)cc(C5CNC5)c4)[nH]c3nc2=O)cc1` [Compound 4], for which the “E. coli ATCC25922 MIC” value is given as “+ (a “+” indicates that the compound has an MIC value of 16 micrograms/ml or less)”. Turning to `N=C(N)NCCCNCc1ccc(-n2cc3cc(-c4cccc(CCCCN)c4F)[nH]c3nc2=O)cc1` [Compound 5], the “E. coli ATCC25922 MIC” value is on record as “+ (a “+” indicates that the compound has an MIC value of 16 micrograms/ml or less)”.

With `N=C(N)NCCCNCc1ccc(-n2cc3cc(-c4c(F)c(F)cc(CCCCN)c4F)[nH]c3nc2=O)cc1` [Compound 6], the “E. coli ATCC25922 MIC” value is “+ (a “+” indicates that the compound has an MIC value of 16 micrograms/ml or less)”. Take `N=C(N)NCCCNCc1ccc(-n2cc3cc(-c4cc(CSCCN)ccc4F)[nH]c3nc2=O)cc1` [Compound 7]: the “E. coli ATCC25922 MIC” value is recorded as “+ (a “+” indicates that the compound has an MIC value of 16 micrograms/ml or less)”. `N=C(N)NCCCNCc1ccc(-n2cc3cc(-c4cc(CSCCN)cc(OC(F)(F)F)c4)[nH]c3nc2=O)cc1` [Compound 8]: the “E. coli ATCC25922 MIC” value was “+ (a “+” indicates that the compound has an MIC value of 16 micrograms/ml or less)”. `Cc1cc(CCCCN)cc(-c2cc3cn(-c4ccc(CNCCCNC(=N)N)cc4)c(=O)nc3[nH]2)c1` [Compound 9]: the “E. coli ATCC25922 MIC” value was “+ (a “+” indicates that the compound has an MIC value of 16 micrograms/ml or less)”.

With `N=C(N)NCCCNCc1ccc(-n2cc3cc(-c4c(Cl)ccc(CCCCN)c4Cl)[nH]c3nc2=O)cc1` [Compound 10], the “E. coli ATCC25922 MIC” value is “+ (a “+” indicates that the compound has an MIC value of 16 micrograms/ml or less)”.

With `CSCCc1cc(CCCCN)cc(-c2cc3cn(-c4ccc(CNCCCNC(=N)N)cc4)c(=O)nc3[nH]2)c1` [Compound 11], the “E. coli ATCC25922 MIC” value is reported as “+ (a “+” indicates that the compound has an MIC value of 16 micrograms/ml or less)”.

Consider `COc1cc(CCCCN)cc(-c2cc3cn(-c4ccc(CNCCCNC(=N)N)cc4)c(=O)nc3[nH]2)c1` [Compound 14], for which the “E. coli ATCC25922 MIC” value is on record as “+ (a “+” indicates that the compound has an MIC value of 16 micrograms/ml or less)”.

Turning to `N=C(N)NCCCNCc1ccc(-n2cc3cc(-c4cc(CS(=O)(=O)CCN)ccc4F)[nH]c3nc2=O)cc1` [Compound 15], the “E. coli ATCC25922 MIC” value is on record as “+ (a “+” indicates that the compound has an MIC value of 16 micrograms/ml or less)”. Take `N=C(N)NCCCNCc1ccc(-n2cc3cc(-c4cc(CS(=O)(=O)CCN)cc(OC(F)(F)F)c4)[nH]c3nc2=O)cc1` [Compound 16]: the “E. coli ATCC25922 MIC” value is reported as “+ (a “+” indicates that the compound has an MIC value of 16 micrograms/ml or less)”. On to `N=C(N)NCCCNCc1ccc(-n2cc3cc(-c4cc(CCCCN)cc(C5CC5)c4)[nH]c3nc2=O)cc1` [Compound 18], for which the “E. coli ATCC25922 MIC” value is given as “+ (a “+” indicates that the compound has an MIC value of 16 micrograms/ml or less)”.

Take `CS(=O)(=O)CCc1cc(CCCCN)cc(-c2cc3cn(-c4ccc(CNCCCNC(=N)N)cc4)c(=O)nc3[nH]2)c1` [Compound 22]: the “E. coli ATCC25922 MIC” value is “+ (a “+” indicates that the compound has an MIC value of 16 micrograms/ml or less)”. In the case of `N=C(N)NCCCNCc1ccc(-n2cc3cc(-c4cc(C[S+]([O-])CCN)ccc4F)[nH]c3nc2=O)cc1` (stereo not shown) [Compound 23], the “E. coli ATCC25922 MIC” value is listed as “+ (a “+” indicates that the compound has an MIC value of 16 micrograms/ml or less)”.

As to `N=C(N)NCCCNCc1ccc(-n2cc3cc(-c4cc(COCCN)ccc4F)[nH]c3nc2=O)cc1` [Compound 24], the “E. coli ATCC25922 MIC” value is reported as “+ (a “+” indicates that the compound has an MIC value of 16 micrograms/ml or less)”. `CCNCCc1cc(CCCCN)cc(-c2cc3cn(-c4ccc(CNCCCNC(=N)N)cc4)c(=O)nc3[nH]2)c1` [Compound 26]: the “E. coli ATCC25922 MIC” value is recorded as “+ (a “+” indicates that the compound has an MIC value of 16 micrograms/ml or less)”. Regarding `CC(N)CCCc1cc(-c2cc3cn(-c4ccc(CNCCCNC(=N)N)cc4)c(=O)nc3[nH]2)cc(C(F)(F)F)c1` (stereo not shown) [Compound 27], the “E. coli ATCC25922 MIC” value is “+ (a “+” indicates that the compound has an MIC value of 16 micrograms/ml or less)”. Take `N=C(N)NCCCNCc1ccc(-n2cc3cc(-c4cc(C(O)CCCN)cc(C(F)(F)F)c4)[nH]c3nc2=O)cc1` (stereo not shown) [Compound 29]: the “E. coli ATCC25922 MIC” value is “+ (a “+” indicates that the compound has an MIC value of 16 micrograms/ml or less)”. Turning to `N=C(N)NCC(F)(F)CNCc1ccc(-n2cc3cc(-c4cc(CCCCN)cc(OC(F)(F)F)c4)[nH]c3nc2=O)cc1` [Compound 30], the “E. coli ATCC25922 MIC” value was “+ (a “+” indicates that the compound has an MIC value of 16 micrograms/ml or less)”. `CC(C)(CNCc1ccc(-n2cc3cc(-c4cc(CCCCN)cc(OC(F)(F)F)c4)[nH]c3nc2=O)cc1)CNC(=N)N` [Compound 31]: the “E. coli ATCC25922 MIC” value was “+ (a “+” indicates that the compound has an MIC value of 16 micrograms/ml or less)”. Take `C[S+]([O-])c1cc(CCCCN)cc(-c2cc3cn(-c4ccc(CNCCCNC(=N)N)cc4)c(=O)nc3[nH]2)c1` (stereo not shown) [Compound 32]: the “E. coli ATCC25922 MIC” value is given as “+ (a “+” indicates that the compound has an MIC value of 16 micrograms/ml or less)”.

Regarding `CS(=O)(=O)c1cc(CCCCN)cc(-c2cc3cn(-c4ccc(CNCCCNC(=N)N)cc4)c(=O)nc3[nH]2)c1` [Compound 33], the “E. coli ATCC25922 MIC” value was “+ (a “+” indicates that the compound has an MIC value of 16 micrograms/ml or less)”. Take `C[C@H](CNCc1ccc(-n2cc3cc(-c4cc(CCCCN)cc(OC(F)(F)F)c4)[nH]c3nc2=O)cc1)CNC(=N)N` [Compound 34]: the “E. coli ATCC25922 MIC” value is “+ (a “+” indicates that the compound has an MIC value of 16 micrograms/ml or less)”. Consider `C[C@@H](CNCc1ccc(-n2cc3cc(-c4cc(CCCCN)cc(OC(F)(F)F)c4)[nH]c3nc2=O)cc1)CNC(=N)N` [Compound 35], for which the “E. coli ATCC25922 MIC” value is listed as “+ (a “+” indicates that the compound has an MIC value of 16 micrograms/ml or less)”. For `N=C(N)NCCCNCc1ccc(-n2cc3cc(-c4cc(COCCN)cc(OC(F)(F)F)c4)[nH]c3nc2=O)cc1` [Compound 36], the “E. coli ATCC25922 MIC” value was “+ (a “+” indicates that the compound has an MIC value of 16 micrograms/ml or less)”. As for `N=C(N)NCCCNCc1ccc(-n2cc3cc(-c4cc(CCCCN)cc(F)c4Cl)[nH]c3nc2=O)cc1` [Compound 37], the “E. coli ATCC25922 MIC” value is recorded as “+ (a “+” indicates that the compound has an MIC value of 16 micrograms/ml or less)”. With `N=C(N)NCCCCc1cc(F)c(Cl)c(-c2cc3cn(-c4ccc(CNCCCNC(=N)N)cc4)c(=O)nc3[nH]2)c1` [Compound 38], the “E. coli ATCC25922 MIC” value is “+ (a “+” indicates that the compound has an MIC value of 16 micrograms/ml or less)”.

Staying with this assay, now noted: Escherichia coli strain ATCC25922, standard microdilution assay.
Regarding `CC(NCCCNC(=N)N)c1ccc(-n2cc3cc(-c4cc(CC5CC(CN)C5)cc(SC(F)(F)F)c4)[nH]c3nc2=O)cc1` (mixture of isomers) [Compound 401], the “E. coli ATCC25922 MIC” value is listed as “+ (a “+” indicates that the compound has an MIC value of 16 micrograms/ml or less)”. In the case of `CC(NCCCNC(=N)N)c1ccc(-n2cc3cc(-c4cc(CC5CCC(N)C5)cc(SC(F)(F)F)c4)[nH]c3nc2=O)cc1` (mixture of isomers) [Compound 420], the “E. coli ATCC25922 MIC” value is recorded as “+ (a “+” indicates that the compound has an MIC value of 16 micrograms/ml or less)”. Consider `CC(NCCCNC(=N)N)c1ccc(-n2cc3cc(-c4cc(CC5CCC(N)C5)cc(Cl)c4F)[nH]c3nc2=O)cc1` (mixture of isomers) [Compound 421], for which the “E. coli ATCC25922 MIC” value was “+ (a “+” indicates that the compound has an MIC value of 16 micrograms/ml or less)”. As for `CC(NCCCNC(=N)N)c1ccc(-n2cc3cc(-c4cc(COC5CC(N)C5)cc(OC(F)(F)F)c4)[nH]c3nc2=O)cc1` (mixture of isomers) [Compound 423], the “E. coli ATCC25922 MIC” value is recorded as “+ (a “+” indicates that the compound has an MIC value of 16 micrograms/ml or less)”. Regarding `N=C(N)NCCCNCc1ccc(-n2cc3cc(-c4cc(C5CCC(N)CC5)cc(C(F)(F)F)c4)[nH]c3nc2=O)cc1` (mixture of isomers) [Compound 425], the “E. coli ATCC25922 MIC” value is on record as “+ (a “+” indicates that the compound has an MIC value of 16 micrograms/ml or less)”. Turning to `CC(NCCCNC(=N)N)c1ccc(-n2cc3cc(-c4cc(C5CCC(N)CC5)cc(C(F)(F)F)c4)[nH]c3nc2=O)cc1` (mixture of isomers) [Compound 426], the “E. coli ATCC25922 MIC” value is recorded as “+ (a “+” indicates that the compound has an MIC value of 16 micrograms/ml or less)”. Still for that read-out and setting: under `N=C(N)NCCCNCc1ccc(-n2cc3cc(-c4cc(C5CCC(CN)CC5)cc(C(F)(F)F)c4)[nH]c3nc2=O)cc1` (mixture of isomers) [Compound 429] stands “+ (a “+” indicates that the compound has an MIC value of 16 micrograms/ml or less)”.

For the compound `CC(NCCCNC(=N)N)c1ccc(-n2cc3cc(-c4cc(C5CCC(CN)CC5)cc(C(F)(F)F)c4)[nH]c3nc2=O)cc1` (mixture of isomers) [Compound 430], the “E. coli ATCC25922 MIC” value is listed as “+ (a “+” indicates that the compound has an MIC value of 16 micrograms/ml or less)”.

The values above are taken from patent publication US9221827B2, “Antimicrobial compounds and methods of making and using the same” (Melinta Therapeutics, Inc., priority 2011, dated 2015).
